From patent publication US6342492B1, “Anti-viral triaza compounds and compositions” (The Research Foundation of State University of New York, priority 1995, dated 2002)
Like-named read-outs stand apart in the source and are kept apart here.

How the values were obtained:
Human Cytomegalovirus = assay: Semi-automated CPE-inhibition assay for HCMV in human foreskin fibroblast cells; format: cell-based; conditions: Human betaherpesvirus 5
Experimental: (§1) Additional antiviral testing was carried out to test the efficacy of compounds of the invention against human cytomegalovirus (HCMV) and another herpesvirus, Variecella Zoster Virus(VZV). The compounds tested were compound (1), the HCl salt of compound (1), Compounds 211, 43, 213 and 214.

[1] = Inhibition of cell proliferation (cytotoxicity) in herpesvirus screening; format: cell-based, human; conditions: human, human foreskin fibroblast cells
Varicella Zoster Virus = assay: Plaque reduction assay for VZV (Ellen strain); format: cell-based; conditions: Human alphaherpesvirus 3
Experimental: as §1

Epstein Barr virus (EBV) = assay: Antiviral screening against Epstein Barr virus; format: cell-based; conditions: human gammaherpesvirus 4; read-out: anti-EBV activity EC50

Work on `C=C1CN(S(=O)(=O)c2ccc(C)cc2)CCCN(C(=O)OCC)CCCN(S(=O)(=O)c2ccc(C)cc2)C1` [Compound 213, 9-(Ethyloxycarbonyl)-3-methylene-1,5-ditosyl-1,5,9-triazacyclododecane] yielded an EC50 (Human Cytomegalovirus) of 3 µM, a CC50 ([1]; inhibit cell proliferation by 50%, HCMV CPE-inhibition screen, read-out: Human Cytomegalovirus CC50) of 167 µM and a CC50 ([1]; inhibit cell proliferation by 50%, VZV screen, read-out: Varicella Zoster Virus CC50) of over 180 µM. It also gave a CC50 ([1]; with anti-EBV screen, read-out: CC50) of over 180 µM, an EC50 (Varicella Zoster Virus) of 170 µM and an EC50 (Epstein Barr virus (EBV)) of 6.7 µM.
